Biological target: JAK1 (Homo sapiens (Human), UniProt P23458)
Test: Analysis of JAK1 activity inhibition ability (ADP-Glo Kinase Assay)
Format: biochemical
Settings: JAK1 enzyme, ADP-Glo luminescence, ATP 250 uM, IRS-itide substrate, 30° C. 40 minutes; read-out: IC50
Outline: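 ADP-Glo luminescence read-out of ADP production, with IC50 taken as the concentration halving JAK1 activity relative to control. Enzyme was incubated 40 min at 30 °C with compound, IRS-itide (40 ng/mL) and ATP (250 uM), concentrations as prepared in pH 7.5 Tris-HCl/MgCl2/BSA/DTT buffer.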

JAK1, sequence (P23458 whole entry): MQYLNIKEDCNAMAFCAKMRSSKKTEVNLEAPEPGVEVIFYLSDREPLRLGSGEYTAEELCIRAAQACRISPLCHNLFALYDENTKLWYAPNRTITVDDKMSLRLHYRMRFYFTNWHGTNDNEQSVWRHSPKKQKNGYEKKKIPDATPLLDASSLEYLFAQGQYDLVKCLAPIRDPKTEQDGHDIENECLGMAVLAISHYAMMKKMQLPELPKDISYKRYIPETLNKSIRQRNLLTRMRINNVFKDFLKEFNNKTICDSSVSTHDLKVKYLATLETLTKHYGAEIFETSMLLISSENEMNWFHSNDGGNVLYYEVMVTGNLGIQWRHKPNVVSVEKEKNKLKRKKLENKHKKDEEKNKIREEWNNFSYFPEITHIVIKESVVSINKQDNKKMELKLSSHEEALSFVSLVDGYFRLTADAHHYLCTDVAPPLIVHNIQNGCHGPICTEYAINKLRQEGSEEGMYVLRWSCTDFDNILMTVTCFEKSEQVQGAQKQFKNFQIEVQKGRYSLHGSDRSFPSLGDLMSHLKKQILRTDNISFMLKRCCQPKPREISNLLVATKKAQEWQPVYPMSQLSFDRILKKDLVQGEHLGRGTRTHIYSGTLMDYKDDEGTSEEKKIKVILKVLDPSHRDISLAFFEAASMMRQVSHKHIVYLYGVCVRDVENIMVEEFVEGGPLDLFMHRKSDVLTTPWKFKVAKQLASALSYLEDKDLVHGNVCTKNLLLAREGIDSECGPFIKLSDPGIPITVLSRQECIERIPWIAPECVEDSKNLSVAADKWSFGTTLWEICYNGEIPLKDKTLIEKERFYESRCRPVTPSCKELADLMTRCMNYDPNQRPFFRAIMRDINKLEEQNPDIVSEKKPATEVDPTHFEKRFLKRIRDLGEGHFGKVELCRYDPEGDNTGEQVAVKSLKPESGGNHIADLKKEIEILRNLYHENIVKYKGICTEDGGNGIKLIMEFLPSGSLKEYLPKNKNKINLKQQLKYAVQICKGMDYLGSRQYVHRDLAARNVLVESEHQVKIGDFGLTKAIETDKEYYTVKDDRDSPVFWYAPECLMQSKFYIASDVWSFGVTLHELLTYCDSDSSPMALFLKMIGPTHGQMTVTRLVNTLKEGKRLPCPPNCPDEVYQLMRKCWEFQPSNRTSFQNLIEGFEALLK

**Q.** For O=C(Nc1cc(-c2ccc(NC3CN(C(=O)c4cc(F)cc(F)c4)C3)cc2)c2cc[nH]c2n1)C1CC1 [Example 510, N-(4-(4-((1-(3,5-difluorobenzoyl)azetidin-3-yl)amino)phenyl)-1H-pyrrolo[2,3-b]pyridin-6-yl)cyclopropanecarboxamide], which IC50 is on record?
**A.** The IC50 was greater than 200 nM.

**Q.** How did the IC50 turn out when O=C(Nc1cc(-c2ccc(NC3CCN(C(=O)Nc4ccc(F)cc4F)CC3)cc2)c2cc[nH]c2n1)C1CC1 [Example 511, 4-((4-(6-(cyclopropanecarboxamido)-1H-pyrrolo[2,3-b]pyridin-4-yl)phenyl)amino)-N-(2,4-difluorophenyl)piperidine-1-carboxamide] was run?
**A.** Its IC50 is 20 to 200 nM.

**Q.** O=C(Nc1cc(-c2ccc(NC3CCN(C(=O)NCC(F)(F)F)CC3)cc2)c2cc[nH]c2n1)C1CC1 [Example 512, 4-((4-(6-(cyclopropanecarboxamido)-1H-pyrrolo[2,3-b]pyridin-4-yl)phenyl)amino)-N-(2,2,2-trifluoroethyl)piperidine-1-carboxamide] was tested. Which IC50 did it give?
**A.** Its IC50 is 20 to 200 nM.

**Q.** How did the IC50 turn out when O=C(Nc1cc(-c2ccc(NC3CN(C(=O)Nc4ccc(F)cc4F)C3)cc2)c2cc[nH]c2n1)C1CC1 [Example 513, 3-((4-(6-(cyclopropanecarboxamido)-1H-pyrrolo[2,3-b]pyridin-4-yl)phenyl)amino)-N-(2,4-difluorophenyl)azetidine-1-carboxamide] was run?
**A.** Its IC50 is greater than 200 nM.

**Q.** For O=C(Nc1cc(-c2ccc(NC3CN(C(=O)NCC(F)(F)F)C3)cc2)c2cc[nH]c2n1)C1CC1 [Example 514, 3-((4-(6-(cyclopropanecarboxamido)-1H-pyrrolo[2,3-b]pyridin-4-yl)phenyl)amino)-N-(2,2,2-trifluoroethyl)azetidine-1-carboxamide], which IC50 is on record?
**A.** The IC50 was greater than 200 nM.

**Q.** How did the IC50 turn out when N#CCC(=O)N1CC(Nc2ccc(-c3cc(NC(=O)C4CC4)nc4[nH]ccc34)cc2)C1 [Example 515, N-(4-(4-((1-(2-cyanoacetyl)azetidin-3-yl)amino)phenyl)-1H-pyrrolo[2,3-b]pyridin-6-yl)cyclopropanecarboxamide] was run?
**A.** The IC50 was 20 to 200 nM.

**Q.** With N#CCC(=O)N1CCC(Nc2ccc(-c3cc(NC(=O)C4CC4)nc4[nH]ccc34)cc2)CC1 [Example 516, N-(4-(4-((1-(2-cyanoacetyl)piperidin-4-yl)amino)phenyl)-1H-pyrrolo[2,3-b]pyridin-6-yl)cyclopropanecarboxamide] as the compound, how does the IC50 read?
**A.** Its IC50 is 20 to 200 nM.

**Q.** O=C(Nc1cc(-c2ccc(NC3CN(C(=O)CC(F)(F)F)C3)cc2)c2cc[nH]c2n1)C1CC1 [Example 517, N-(4-(4-((1-(3,3,3-trifluoropropanoyl)azetidin-3-yl)amino)phenyl)-1H-pyrrolo[2,3-b]pyridin-6-yl)cyclopropanecarboxamide] was tested. Which IC50 did it give?
**A.** Its IC50 is 20 to 200 nM.

**Q.** Which IC50 does the source give for O=C(Nc1cc(-c2ccc(NC3CCN(C(=O)CC(F)(F)F)CC3)cc2)c2cc[nH]c2n1)C1CC1 [Example 518, N-(4-(4-((1-(3,3,3-trifluoropropanoyl)piperidin-4-yl)amino)phenyl)-1H-pyrrolo[2,3-b]pyridin-6-yl)cyclopropanecarboxamide] here?
**A.** The IC50 was greater than 200 nM.

**Q.** N#CCC(=O)c1ccc(-c2cc(NC(=O)C3CC3)nc3[nH]ccc23)cc1 [Example 519, N-(4-(4-(2-cyanoacetyl)phenyl)-1H-pyrrolo[2,3-b]pyridin-6-yl)cyclopropanecarboxamide] was tested. Which IC50 did it give?
**A.** Its IC50 is greater than 200 nM.

**Q.** How did the IC50 turn out when O=C(Nc1cc(-c2ccc(C(=O)N3CCS(=O)(=O)CC3)cc2)c2cc[nH]c2n1)C1CC1 [Example 520, N-(4-(4-(1,1-dioxidothiomorpholine-4-carbonyl)phenyl)-1H-pyrrolo[2,3-b]pyridin-6-yl)cyclopropanecarboxamide] was run?
**A.** Its IC50 is greater than 200 nM.

**Q.** Which IC50 does the source give for O=C(Nc1cc(-c2ccc(C(=O)N3CCSCC3)cc2)c2cc[nH]c2n1)C1CC1 [Example 521, N-(4-(4-(thiomorpholine-4-carbonyl)phenyl)-1H-pyrrolo[2,3-b]pyridin-6-yl)cyclopropanecarboxamide] here?
**A.** The IC50 was 20 to 200 nM.

**Q.** Cc1cc(C(=O)N2CCOCC2)ccc1-c1cc(NC(=O)C2CC2)nc2[nH]ccc12 [Example 522, N-(4-(2-methyl-4-(morpholine-4-carbonyl)phenyl)-1H-pyrrolo[2,3-b]pyridin-6-yl)cyclopropanecarboxamide] was tested. Which IC50 did it give?
**A.** The IC50 was 20 to 200 nM.

— patent US11524968B2, “Heterocyclic compound as a protein kinase inhibitor” (HK inno.N Corporation, priority 2017, dated 2022)
